Experimental data as given in patent publication US8921404B2, “Azole derivatives in the form of lipase and phospholipase inhibitors” (Sanofi, priority 2005, dated 2014).

Tests used:
[1] = molecular target: hormone sensitive lipase, HSL (Rattus norvegicus (Rat), UniProt P15304); test: HSL inhibition assay; assay type: biochemical; conditions: partially purified HSL from rat fat cells; [3H]trioleoylglycerol substrate
Procedure: 1.1. Preparation of the Partially Purified HSL:
Isolated rat fat cells are obtained from epididymal adipose tissue from untreated male rats (Wistar, 220-250 g) by collagenase treatment in accordance with published methods (e.g. S, Nilsson et al., Anal. Biochem. 158, 1986, 399-407; G. Fredrikson et al., J. Biol. Chem. 256, 1981, 6311-6320; H. Tornquist et al., J. Biol. Chem. 251, 1976, 813-819). The fat cells from 10 rats are washed three times by flotation with 50 ml of homogenization buffer ([…] Tris/HCl, pH 7.4, 0.25 M sucrose, 1 mM ETDA, 1 mM DTT, 10 μg/ml leupeptin, 10 μg/ml antipain, 20 μg/ml pepstatin) each time and finally taken up in 10 ml of homogenization buffer. The fat cells are homogenized in a Teflon-in-glass homogenizer (Braun-Melsungen) by 10 strokes at 1500 rpm and 15° C. The homogenate is centrifuged (Sorvall SM24 tubes, 5000 rpm, 10 min, 4° C.). The subnatant between the layer of fat at the top and the pellet is removed and the centrifugation is repeated. The subnatant resulting therefrom is centrifuged again (Sorvall SM24 tubes, 20 000 rpm, 45 min, 4° C.). The subnatant is removed, and 1 g of heparin-Sepharose (Pharmacia-Biotech, CL-6B, washed 5× with 25 mM Tris/HCl, pH 7.4, 150 mM NaCl) is added. After incubation at 4° C. for 60 min (shaking at intervals of 15 min), the mixture is centrifuged (Sorvall SM24 tubes, 3000 rpm, 10 min, 4° C.). The supernatant is adjusted to pH 5.2 by adding glacial acetic acid and is incubated at 4° C. for 30 min. The precipitates are collected by centrifugation (Sorvall SS34, 12 000 rpm, 10 min, 4° C.) and suspended in 2.5 ml of 20 mM Tris/HCl, pH 7.0, 1 mM EDTA, 65 mM NaCl, 13% sucrose, 1 mM DTT, 10 μg/ml leupeptin/pepstatin/antipain. The suspension is dialyzed against 25 mM Tris/HCl, pH 7.4, 50% glycerol, 1 mM DTT, 10 μg/ml leupeptin, pepstatin, antipain at 4° C. overnight and then loaded onto a hydroxyapatite column (0.1 g per 1 ml of suspension, equilibrated with 10 mM potassium phosphate, pH 7.0, 30% glycerol, 1 mM DTT). The column is washed with four volumes of equilibration buffer at a flow rate of 20 to 30 ml/h. The HSL is eluted with one volume of equilibration buffer containing 0.5 M potassium phosphate and then dialyzed (see above) and concentrated 5- to 10-fold by ultrafiltration (Amicon Diaflo PM 10 Filter) at 4° C. The partially purified HSL can be stored at −70° C. for 4 to 6 weeks.
To prepare the substrate, 25-50 μCi of [3H]trioleoylglycerol (in toluene), 6.8 μmol of unlabeled trioleoylglycerol and 0.6 mg of phospholipids (phosphatidylcholine/phosphatidylinositol 3:1 w/v) are mixed, dried with N2 and then taken up in 2 ml of 0.1 M KPi (pH 7.0) by ultrasound treatment (Branson 250, microtip, setting 1-2, 2×1 min with an interval of 1 min). After addition of 1 ml of KPi and renewed ultrasound treatment (4×30 sec on ice with intervals of 30 sec), 1 ml of 20% BSA (in KPi) is added (final concentration of trioleoylglycerol 1.7 mM). For the reaction, 100 μl of substrate solution are pipetted into 100 μl of HSL solution (HSL prepared as above, diluted in 20 mM KPi, pH 7.0, 1 mM EDTA, 1 mM DTT, 0.02% BSA, 20 μg/ml pepstatin, 10 μg/ml leupeptin) and incubated at 37° C. for 30 min. Addition of 3.25 ml of methanol/chloroform/heptane (10:9:7) and of 1.05 ml of 0.1 M K2CO3, 0.1 M boric acid (pH 10.5) is followed by thorough mixing and finally centrifugation (800×g, 20 min). After phase separation, one equivalent of the upper phase (1 ml) is removed and the radioactivity is determined by liquid scintillation measurement.
1.3 Evaluation of the HSL-Inhibitory Effect:
Substances are normally tested in four independent mixtures. The inhibition of the HSL enzymatic activity by a test substance is determined by comparing with an uninhibited control reaction. The IC50 is calculated from an inhibition plot with at least 10 concentrations of the test substance. The GRAPHIT, Elsevier-BIOSOFT software package is used to analyze the data.

[2] = molecular target: endothelial lipase (EL) (Homo sapiens (Human), UniProt Q9Y5X9); test: EL inhibition assay; assay type: biochemical; conditions: EL from conditioned medium of recombinant cell lines (CHO, HEK293); Bodipy phospholipid substrate
From the text: EL is released as secretory protein in high concentration into cell culture medium (conditioned medium) by recombinant cell lines (CHO, HEK293). This is employed as enzyme solution after concentration.
The phospholipase-specific substrate 1,2-bis(4,4-difluoro-5,7-dimethyl-4-bora-3a,4a-diaza-s-indacene-3-undecanoyl)-sn-glycero-3-phosphocholine, (manufacturer Molecular Probes) is used to characterize the enzymatic activity of endothelial lipase and the effect of inhibitors. Hydrolysis of the A1 ester linkage of this phospholipid by the enzyme liberates the fluorescent dye Bodipy which can be detected after separation by thin-layer chromatography on an HPTLC plate (silica gel 60, Merck) or directly in the reaction vessel by measuring the fluorescence.
The substrate solution is prepared by taking up 100 μg of 1,2-bis(4,4-difluoro-5,7-dimethyl-4-bora-3a,4a-diaza-s-indacene-3-undecanoyl)-sn-glycero-3-phospho-choline (manufacturer Molecular Probes), 2.4 mg of tripalmitin (Sigma) and 7.9 mg of DOP—choline (1,2-dioleoyi-sn-glycero-3-phosphocholine) in 393 μl of chloroform and then transferring 157 μl into a fresh reaction vessel. After evaporation of the solvent, the lipid mixture is dissolved in 4 ml of 200 mM TRIS-HCl, 150 mM sodium chloride, pH=7.4, by sonication twice. […] After evaporation of the eluent, the plate is read in a fluorescence scanner. […]

Sequence of hormone sensitive lipase, HSL (P15304 301-1068, change not shown): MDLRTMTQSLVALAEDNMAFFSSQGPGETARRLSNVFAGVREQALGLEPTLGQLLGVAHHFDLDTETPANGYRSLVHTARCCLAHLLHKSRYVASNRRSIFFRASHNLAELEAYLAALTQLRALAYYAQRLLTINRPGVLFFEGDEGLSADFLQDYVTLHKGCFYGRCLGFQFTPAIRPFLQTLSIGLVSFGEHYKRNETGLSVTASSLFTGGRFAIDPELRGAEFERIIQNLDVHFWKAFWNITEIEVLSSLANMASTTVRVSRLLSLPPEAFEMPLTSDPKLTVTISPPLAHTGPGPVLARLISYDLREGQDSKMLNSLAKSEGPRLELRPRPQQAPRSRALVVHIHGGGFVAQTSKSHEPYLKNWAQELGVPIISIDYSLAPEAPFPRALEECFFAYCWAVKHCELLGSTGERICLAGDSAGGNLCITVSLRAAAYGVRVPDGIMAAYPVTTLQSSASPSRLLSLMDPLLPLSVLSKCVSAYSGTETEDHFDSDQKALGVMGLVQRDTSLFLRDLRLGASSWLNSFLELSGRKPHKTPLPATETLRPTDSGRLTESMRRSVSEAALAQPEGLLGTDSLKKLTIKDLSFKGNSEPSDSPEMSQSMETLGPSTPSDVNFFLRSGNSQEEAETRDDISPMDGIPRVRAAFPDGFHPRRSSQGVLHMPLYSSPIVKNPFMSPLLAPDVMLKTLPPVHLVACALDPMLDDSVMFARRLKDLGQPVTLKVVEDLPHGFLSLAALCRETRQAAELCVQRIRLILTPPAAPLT
Sequence of endothelial lipase (EL) (Q9Y5X9 21-500, species assumed): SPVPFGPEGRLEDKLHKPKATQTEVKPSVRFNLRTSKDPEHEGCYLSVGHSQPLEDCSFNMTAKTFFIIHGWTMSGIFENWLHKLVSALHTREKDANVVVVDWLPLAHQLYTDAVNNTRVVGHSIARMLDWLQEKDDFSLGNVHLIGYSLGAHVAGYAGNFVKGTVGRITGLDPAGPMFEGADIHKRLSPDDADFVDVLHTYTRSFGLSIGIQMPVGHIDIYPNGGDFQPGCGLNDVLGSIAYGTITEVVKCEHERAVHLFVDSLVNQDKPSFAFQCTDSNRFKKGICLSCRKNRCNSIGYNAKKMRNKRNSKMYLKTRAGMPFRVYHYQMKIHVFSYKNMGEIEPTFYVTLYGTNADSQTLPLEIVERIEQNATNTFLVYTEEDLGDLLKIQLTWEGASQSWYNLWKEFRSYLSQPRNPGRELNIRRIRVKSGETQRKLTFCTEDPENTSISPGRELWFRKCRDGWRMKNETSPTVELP

Structure (SMILES) | IC50 [1] | IC50 [2]
Cc1ccc2c(OC(=O)N3CCC(C)CC3)noc2n1 [Example 11, 6-Methylisoxazolo[5,4-b]pyridin-3-yl 4-methylpiperidine-1-carboxylate] | 0.26 µM | 
CC1CCN(C(=O)Oc2nsc3ncccc23)CC1 [Example 4, Isothiazolo[5,4-b]pyridin-3-yl 4-methylpiperidine-1-carboxylate] | 0.1 µM | 
CC1CCN(C(=O)Oc2noc3nc(Cl)ccc23)CC1 [Example 10, 6-Chloroisoxazolo[5,4-b]pyridin-3-yl 4-methylpiperidine-1-carboxylate] | 0.67 µM | 
CC1CCN(C(=O)Oc2noc3cc(Cl)ccc23)CC1 [Example 1, 6-Chlorobenzo[d]isoxazol-3-yl 4-methylpiperidine-1-carboxylate] | 0.12 µM | 
O=C(Oc1noc2cc(Cl)ccc12)N1CCC(C(F)(F)F)CC1 [Example 3, 6-Chlorobenzo[d]isoxazol-3-yl 4-trifluoromethylpiperidine-1-carboxylate] | 0.1 µM | 
CC1CCN(C(=O)Oc2noc3ncccc23)CC1 [Example 2, Isoxazolo[5,4-b]pyridin-3-yl 4-methylpiperidine-1-carboxylate] | 0.12 µM | 

Next, values leading:

IC50 [1] | IC50 [2] | Structure (SMILES)
 | 14.6 µM | CCCCCCNC(=O)Nc1noc2ccccc12 [Example 8, 1-Benzo[d]isoxazol-3-yl-3-hexylurea]
0.1 µM |  | CC1CCN(C(=O)Oc2nsc3ccccc23)CC1 [Example 5, Benzo[d]isothiazol-3-yl 4-methylpiperidine-1-carboxylate]
 | 14.6 µM | Cc1ccccc1CNC(=O)Nc1nsc2ccc([N+](=O)[O-])cc12 [Example 7, 1-(2-Methylbenzyl)-3-(5-nitrobenzo[d]isothiazol-3-yl)urea]
